Earlier results as cited in patent publication US20050158411A1, “Methods and apparatus to prevent, treat, and cure the symptoms of nauea caused by chemotherapy treatments of human cancers” (priority 2000, published 2005).
“Also recorded” adds a separate entry of the source.

Legend:
[1] = tested on: fungal infection of the toenails; conditions: after six months
[2] = tested on: SARS virus growing in tissue cultures

SMILES	effectiveness for fungal infection of the toenails [1]	effect against the SARS virus [2]
Clc1ccccc1C(c1ccccc1)(c1ccccc1)n1ccnc1 [clotrimazole]	equally effective	–
NC(=O)c1ncn([C@@H]2O[C@H](CO)[C@@H](O)[C@H]2O)n1 [ribavirin]	–	no evidence that the drug has any effect; also recorded: conclusively shown ineffective
